Experimental data reported in US9149455B2, “Methods of treating melanoma” (Abraxis BioScience, LLC, priority 2012, dated 2015).

What was measured:
[1] = tested on: stage IV cutaneous metastatic malignant melanoma; assay: Phase 3 study of Nab-paclitaxel versus dacarbazine in chemotherapy-naive patients, efficacy; type: in vivo, human
From the text: Chemotherapy-naïve patients with stage IV cutaneous metastatic malignant melanoma were enrolled. The patients had Eastern Cooperative Oncology Group (ECOG) PS 0-1, measurable disease, and lactate dehydrogenase (LDH) levels ≦2.0× Upper Limit of Normal (ULN), and had no current brain metastases.
The primary efficacy endpoint was progression-free survival (“PFS”) based on a blinded radiology assessment (according to Response Evaluation Criteria in Solid Tumors (“RECIST”) v1.0). The secondary efficacy endpoint was overall survival (“OS”). Other endpoints included objective response rate (“ORR”), disease control rate (“DCR”), and safety/tolerability.

[2] = Phase 3 study of Nab-paclitaxel versus dacarbazine, treatment-related adverse events; type: in vivo, human
metastatic melanoma = settings: advanced melanoma; Finn L et al., BMC Medicine 2012; cited from earlier work
[3] = Grade ≧3 treatment-related adverse events

Q: With CN(C)/N=N/c1[nH]cnc1C(N)=O [Dacarbazine, dacarbazine] as the compound, how does the “Median OS (interim)” value ([1]; BRAF V600E Mutation subgroup) read?
A: 11.2 months

Q: What about the “Median PFS” value ([1]; BRAF V600E Mutation subgroup) of the same compound?
A: 3.5 months

Q: And the “Median OS (interim)” value ([1]; BRAF Wild Type subgroup)?
A: 11.1 months

Q: And the “Median PFS” value ([1]; BRAF Wild Type subgroup)?
A: 2.5 months

Q: And the “Median OS (interim)” value ([1]; BRAF status Unknown subgroup)?
A: 9.9 months

Q: What about the “Median PFS” value ([1]; BRAF status Unknown subgroup) of the same compound?
A: 2.2 months

Q: And the “progression free survival (PFS) by independent radiology review” value ([1]; all patients, Nab-paclitaxel 150 mg/m^2 iv days 1, 8, 15 of 28-day cycle vs dacarbazine 1000 mg/m^2 iv day 1 of 21-day cycle, RECIST v1.0, P=0.044)?
A: 2.5 months

Q: What about the “Median OS, planned interim analysis” value ([1]; all patients, at time of PFS analysis, 64% of patients had an event) of the same compound?
A: 10.7 months

Q: And the “Best Response: Not Evaluable” value ([1]; blinded radiology assessment)?
A: 25%

Q: What about the “Best Response: PD” value ([1]; blinded radiology assessment) of the same compound?
A: 48%

Q: What about the “Best Response: SD” value ([1]; blinded radiology assessment) of the same compound?
A: 16%

Q: And the DCR ([1]; blinded radiology assessment)?
A: 27%

Q: And the ORR ([1]; blinded radiology assessment)?
A: 11%

Q: What about the “PR (listed under DCR)” value ([1]; blinded radiology assessment) of the same compound?
A: 11%

Q: What about the “Best Response: PR” value ([1]; blinded radiology assessment, confirmed) of the same compound?
A: 11%

Q: And the Alopecia ([2]; Grade ≧3 TRAE)?
A: 0%

Q: And the Anemia ([2]; Grade ≧3 TRAE)?
A: 5%

Q: What about the Fatigue ([2]; Grade ≧3 TRAE) of the same compound?
A: 2%

Q: What about the Leukopenia ([2]; Grade ≧3 TRAE) of the same compound?
A: 7%

Q: And the Lymphocytopenia ([2]; Grade ≧3 TRAE)?
A: 11%

Q: And the Neutropenia ([2]; Grade ≧3 TRAE)?
A: 10%

Q: And the “Peripheral Neuropathy” value ([2]; Grade ≧3 TRAE)?
A: 0%

Q: And the Thrombocytopenia ([2]; Grade ≧3 TRAE)?
A: 6%

Q: What about the “Patients with at least 1 TRAE” value [2, 3] of the same compound?
A: 28%

Q: And the “Patients with at least 1 serious TRAE” value [2, 3]?
A: 7%

Q: For “Ipilmumab: anti-CTLA-4 antibody, FDA approved 2011 for advanced melanoma”, which “improvement of median survival time” value (metastatic melanoma) is on record?
A: two

Q: For CCCS(=O)(=O)Nc1ccc(F)c(C(=O)c2c[nH]c3ncc(-c4ccc(Cl)cc4)cc23)c1F [vemurafenib], which toxicity (metastatic melanoma) is on record?
A: low toxicity
